Data set [1] is described as follows: Displacement of BODIPY-TR-cadaverine from Lipoteichoic acid preincubated with LTA for 15 mins followed by compound addition and measured for 30 mins by fluorescence based microplate reader assay. The settings on record: time 45.0 min; DDE = dose-dependent effect.
The test system of data set [2] is Staphylococcus aureus. Nature of the data set: Antibacterial activity against methicillin resistant Staphylococcus aureus N315 assessed as inhibition of bacterial growth in presence of 4.5 mmol/L K+ (reference value: […] microg/ml). In kind it is functional.
The test system of data set [3] is Staphylococcus aureus. Briefly: Antibacterial activity against methicillin resistant Staphylococcus aureus NCTC10442 assessed as inhibition of bacterial growth in presence of 20 umol/L Fe2+ (reference value: […] microg/ml). In kind it is functional.
In a further data set the test system is Enterococcus faecalis. Briefly: Antibacterial activity against Enterococcus faecalis ATCC 29212 assessed as inhibition of bacterial growth incubated for 24 hrs by microbroth dilution method. In kind it is functional.
Data set [4] has as its system Staphylococcus aureus. Briefly: Antibacterial activity against methicillin resistant Staphylococcus aureus NCTC10442 assessed as inhibition of bacterial growth in presence of 20 umol/L […] (reference value: […] microg/ml). In kind it is functional.
The subject of data set [5] is Staphylococcus aureus. Briefly: Antibacterial activity against methicillin resistant Staphylococcus aureus N315 assessed as inhibition of bacterial growth in presence of 20 umol/L Fe2+ (reference value: […] microg/ml). In kind it is functional.
For data set [6], the system named is Staphylococcus aureus. Briefly: Antibacterial activity against methicillin resistant Staphylococcus aureus NCTC10442 assessed as inhibition of bacterial growth in presence of 4.5 mmol/L K+ (reference value: […] microg/ml). In kind it is functional.
Data set [7] has as its system Staphylococcus aureus. Nature of the data set: Antibacterial activity against Staphylococcus aureus ATCC 29213 assessed as inhibition of bacterial growth in presence of 19 umol/L Zn2+ (reference value: […] microg/ml). In kind it is functional.
The test system of data set [8] is Staphylococcus aureus. Briefly: Antibacterial activity against Staphylococcus aureus ATCC 29213 assessed as inhibition of bacterial growth in presence of 20 umol/L […] (reference value: […] microg/ml). In kind it is functional.
In data set [9] the test system is Staphylococcus aureus. Briefly: Antibacterial activity against Staphylococcus aureus ATCC 15981 assessed as inhibition of bacterial growth incubated for 24 hrs by microbroth dilution method. In kind it is functional. For orientation: In broth dilution the organism is exposed to a series of concentrations in liquid medium.
The subject of data set [10] is Cell membrane. Nature of the data set: Induction of cell membrane disruption in methicillin resistant Staphylococcus aureus NCTC10442 assessed as increase in fluorescence intensity measured for 100 mins by SYTOX green assay. In kind it is subcellular. The settings on record: DDE = dose-dependent effect.
Data set [11] deals with Staphylococcus aureus. Nature of the data set: Antibacterial activity against methicillin resistant Staphylococcus aureus N315 assessed as inhibition of bacterial growth in presence of 2.50 mmol/L Ca2+ (reference value: […] microg/ml). In kind it is functional.
Data set [12] concerns Staphylococcus aureus. Nature of the data set: Antibacterial activity against methicillin resistant Staphylococcus aureus N315 assessed as inhibition of bacterial growth in presence of 20 umol/L […] (reference value: […] microg/ml). In kind it is functional.
Data set [13] relates to Staphylococcus aureus. Nature of the data set: Antibacterial activity against methicillin resistant Staphylococcus aureus N315 assessed as inhibition of bacterial growth in presence of 1.00 mmol/L Mg2+ (reference value: […] microg/ml). In kind it is functional.
For data set [14], the system named is Staphylococcus aureus. Briefly: Antibacterial activity against Staphylococcus aureus ATCC 29213 infected in mouse corneal infection model assessed as log reduction in bacterial load at 5 mg/ml pre-infected with bacteria for 24 hrs followed by compound administered four times a day for 3 consecutive weeks. In kind it is functional. To be noted: time 3 weeks.

Data set [15] concerns Staphylococcus epidermidis. Briefly: Antibacterial activity against Staphylococcus epidermidis CMCC26069 assessed as inhibition of bacterial growth incubated for 24 hrs by microbroth dilution method. In kind it is functional.
The nature of data set [16]: Cytotoxicity against mouse NCTC clone 929 cells assessed as cell viability at 50 ug/ml after 24 hrs by CCK8 assay. In kind it is toxicity, cell-based. To be noted: at 50 µg/mL, read-out: Activity. A general note: Formazan colour is commonly taken as a measure of viable cells.
Data set [17] has as its system Staphylococcus aureus. Nature of the data set: Antibacterial activity against methicillin resistant Staphylococcus aureus N315 assessed as inhibition of bacterial growth in presence of 19 umol/L Zn2+ (reference value: […] microg/ml). In kind it is functional.
The subject of data set [18] is Cell membrane. Briefly: Disruption of membrane integrity in Staphylococcus aureus ATCC 29213 assessed as cell membrane damage at 8 times MIC incubated for 2 hrs by Live/dead staining based laser confocal microscopy analysis. In kind it is subcellular.
For data set [19], the system named is Staphylococcus epidermidis. Nature of the data set: Antibacterial activity against Staphylococcus epidermidis ATCC 12228 assessed as inhibition of bacterial growth incubated for 24 hrs by microbroth dilution method. In kind it is functional.
Data set [20] deals with Staphylococcus aureus. Briefly: Antibacterial activity against methicillin resistant Staphylococcus aureus NCTC10442 assessed as inhibition of bacterial growth in presence of 19 umol/L Zn2+ (reference value: […] microg/ml). In kind it is functional.
Data set [21] has as its system Staphylococcus aureus. Briefly: Antibacterial activity against methicillin resistant Staphylococcus aureus NCTC10442 assessed as inhibition of bacterial growth incubated for 24 hrs by microbroth dilution method. In kind it is functional.
Data set [22] relates to Staphylococcus aureus. Briefly: Antibacterial activity against methicillin resistant Staphylococcus aureus NCTC10442 assessed as inhibition of bacterial growth in presence of 140 mmol/L Na+ (reference value: […] microg/ml). In kind it is functional.
The subject of data set [23] is Staphylococcus aureus. Briefly: Antibacterial activity against methicillin resistant Staphylococcus aureus N315 assessed as inhibition of bacterial growth incubated for 24 hrs by microbroth dilution method. In kind it is functional.
Data set [24] concerns Staphylococcus aureus. Nature of the data set: Bactericidal activity against Staphylococcus aureus ATCC 29213 at 4 to 8 times MIC after 0.5 hrs by time kill assay. In kind it is functional.
A short description of data set [25]: Cytotoxicity against human HEK293 cells assessed as cell viability at 50 ug/ml after 24 hrs by CCK8 assay. In kind it is toxicity, cell-based. The settings on record: at 50 µg/mL, read-out: Activity.
The subject of data set [26] is Staphylococcus aureus. Nature of the data set: Antibacterial activity against Staphylococcus aureus ATCC 29213 assessed as inhibition of bacterial growth incubated for 24 hrs by microbroth dilution method. In kind it is functional.
Data set [27] has as its system Staphylococcus aureus. Nature of the data set: Induction of morphological changes in Staphylococcus aureus ATCC 29213 assessed as perforation at 8 times MIC incubated for 2 hrs by TEM analysis. In kind it is functional, organism-based.
The test system of the next data set is Bacillus subtilis. Nature of the data set: Antibacterial activity against Bacillus subtilis CMCC63501 assessed as inhibition of bacterial growth incubated for 24 hrs by microbroth dilution method. In kind it is functional.
Data set [28] has as its system Staphylococcus aureus. Briefly: Antibacterial activity against methicillin resistant Staphylococcus aureus NCTC10442 assessed as inhibition of bacterial growth in presence of 1.00 mmol/L Mg2+ (reference value: […] microg/ml). In kind it is functional.
In data set [29] the test system is Staphylococcus aureus. Nature of the data set: Bactericidal activity against Staphylococcus aureus ATCC 29213 at 4 to 8 times MIC after 24 hrs by time kill assay. In kind it is functional, organism-based.
The subject of data set [30] is Staphylococcus aureus. Briefly: Antibacterial activity against Staphylococcus aureus ATCC 29213 assessed as inhibition of bacterial growth in presence of 1.00 mmol/L Mg2+ (reference value: […] microg/ml). In kind it is functional.
Data set [31] relates to Staphylococcus aureus. Nature of the data set: Antibacterial activity against Staphylococcus aureus ATCC 29213 assessed as inhibition of bacterial growth in presence of 140 mmol/L Na+ (reference value: […] microg/ml). In kind it is functional.
For data set [32], the system named is Staphylococcus aureus. Nature of the data set: Antibacterial activity against methicillin resistant Staphylococcus aureus NCTC10442 assessed as inhibition of bacterial growth in presence of 2.50 mmol/L Ca2+ (reference value: […] microg/ml). In kind it is functional.
A short description of data set [33]: Displacement of BODIPY-TR-cadaverine from Lipoteichoic acid at 4 times MIC preincubated with LTA for 15 mins followed by compound addition and measured for 30 mins by fluorescence based microplate reader assay. To be noted: time 45.0 min.
Data set [34] is described as follows: Hemolytic activity in rabbit RBC incubated for 1 hr by microplate reader analysis. In kind it is toxicity, cell-based, Oryctolagus cuniculus, Erythrocyte. The settings on record: rabbit red blood cells (erythrocytes).
Data set [35] relates to Cell membrane. Briefly: Induction of cell membrane disruption in Staphylococcus aureus ATCC 29213 assessed as increase in fluorescence intensity measured for 100 mins by SYTOX green assay. In kind it is subcellular. To be noted: DDE = dose-dependent effect.
For data set [36], the system named is Staphylococcus aureus. Briefly: Antibacterial activity against Staphylococcus aureus ATCC 29213 assessed as inhibition of bacterial growth in presence of 20 umol/L Fe2+ (reference value: […] microg/ml). In kind it is functional.
The subject of data set [37] is Staphylococcus aureus. Nature of the data set: Antibacterial activity against Staphylococcus aureus ATCC 29213 assessed as inhibition of bacterial growth in presence of 4.5 mmol/L K+ (reference value: […] microg/ml). In kind it is functional.
Data set [38] has as its system Staphylococcus aureus. Briefly: Antibacterial activity against Staphylococcus aureus ATCC 29213 assessed as inhibition of bacterial growth in presence of 2.50 mmol/L Ca2+ (reference value: […] microg/ml). In kind it is functional.
For data set [39], the system named is Staphylococcus aureus. Nature of the data set: Antibacterial activity against methicillin resistant Staphylococcus aureus N315 assessed as inhibition of bacterial growth in presence of 140 mmol/L Na+ (reference value: […] microg/ml). In kind it is functional.
For data set [40], the system named is Staphylococcus aureus. Briefly: Antibacterial activity against Staphylococcus aureus ATCC 29213 infected in mouse corneal infection model assessed as log reduction in bacterial load at 50 mg/ml pre-infected with bacteria for 24 hrs followed by compound administered four times a day for 3 consecutive weeks. In kind it is functional. To be noted: time 3 weeks.

Molecules are shown by their SMILES. ≈ marks a conversion by molar mass, not a printed value. Calls of active or inactive are those of the source. The calls are words filed in the database; no cut-off is given here.

Usually MIC stands for the least concentration at which growth counts as inhibited. In general, HC50 refers to the concentration giving 50% haemolysis. As for `COC(=O)[C@H](CCCNC(=N)N)NC(=O)COc1ccc(C(C)(C)CC(C)(C)C)cc1Sc1cc(C(C)(C)CC(C)(C)C)ccc1OCC(=O)N[C@@H](CCCNC(=N)N)C(=O)OC`, the Activity entry is “Dde” in [1]; “Dde” with Cell membrane [10]; 99.99% in the data set with Staphylococcus aureus [24]; 62.2% in data set [33]; “Dde” with Cell membrane [35]. In addition, the MIC in the data set on Staphylococcus aureus [2] worked out at 0.78 µg/mL; in the data set with Staphylococcus aureus [3] it was 0.78 µg/mL; in the data set on Enterococcus faecalis it was 0.78 µg/mL (≈ 0.867 µM); in the data set on Staphylococcus aureus [4] it was 0.78 µg/mL; in the data set on Staphylococcus aureus [5], 0.78 µg/mL; in the data set on Staphylococcus aureus [6] it was 0.78 µg/mL. Also, the MIC with Staphylococcus aureus [7] turned out to be 0.78 µg/mL; in the data set with Staphylococcus aureus [8], 0.78 µg/mL; in the data set with Staphylococcus aureus [9], 0.78 µg/mL (≈ 0.867 µM); in the data set on Staphylococcus aureus [11], 0.78 µg/mL; in the data set with Staphylococcus aureus [12], 0.78 µg/mL; in the data set on Staphylococcus aureus [13], 0.78 µg/mL. Besides, the minimum inhibitory concentration (MIC) in data set [15] amounted to 0.39 µg/mL (≈ 0.434 µM); with Staphylococcus aureus [17], 0.78 µg/mL; in data set [19], 0.39 µg/mL (≈ 0.434 µM); in the data set with Staphylococcus aureus [20], 0.78 µg/mL; with Staphylococcus aureus [21] it was 0.78 µg/mL (≈ 0.867 µM); with Staphylococcus aureus [22], 0.78 µg/mL. Further, the MIC in the data set with Staphylococcus aureus [23] was found to be 0.78 µg/mL (≈ 0.867 µM); in the data set on Staphylococcus aureus [26] it was 1.56 µg/mL (≈ 1.73 µM); in the data set on Bacillus subtilis, 0.78 µg/mL (≈ 0.867 µM); in the data set on Staphylococcus aureus [28], 0.78 µg/mL; in the data set on Staphylococcus aureus [30], 1.56 µg/mL; with Staphylococcus aureus [31], 1.56 µg/mL. Also, the MIC in the data set on Staphylococcus aureus [32] is 0.78 µg/mL; in the data set with Staphylococcus aureus [36], 0.78 µg/mL; in the data set with Staphylococcus aureus [37] it was 1.56 µg/mL; in the data set with Staphylococcus aureus [38], 1.56 µg/mL; in the data set with Staphylococcus aureus [39] it was 0.39 µg/mL. For the same compound, the “log(activity)” value in the data set on Staphylococcus aureus [14] worked out at 6.81. The viability at 24 h, 50 ug/ml amounted to 53.1% in data set [16] and 55.9% in data set [25]. Further, the outcome in the data set on Cell membrane [18], in the data set on Staphylococcus aureus [27] and in the data set with Staphylococcus aureus [29] was Active. Besides, the HC50 at 1 h in data set [34] was above 200 µg/mL.
Take `CN[C@H](CC(C)C)C(=O)N[C@H]1C(=O)N[C@@H](CC(N)=O)C(=O)N[C@H]2C(=O)N[C@H]3C(=O)N[C@H](C(=O)N[C@H](C(=O)O)c4cc(O)cc(O)c4-c4cc3ccc4O)[C@H](O)c3ccc(c(Cl)c3)Oc3cc2cc(c3O[C@@H]2O[C@H](CO)[C@@H](O)[C@H](O)[C@H]2O[C@H]2C[C@](C)(N)[C@H](O)[C@H](C)O2)Oc2ccc(cc2Cl)[C@H]1O` [VANCOMYCIN]: the MIC worked out at 0.78 µg/mL (≈ 0.538 µM) with Staphylococcus aureus [21], 1.56 µg/mL (≈ 1.08 µM) in the data set with Staphylococcus aureus [23] and 0.78 µg/mL (≈ 0.538 µM) with Staphylococcus aureus [26]. Besides, the “log(activity)” value with Staphylococcus aureus [40] is recorded as 5.21.
